The subject of assay [1] is Mycobacterium tuberculosis. Briefly: Antimycobacterial activity against drug-resistant Mycobacterium tuberculosis clinical isolate. The class given is functional.
The test system of assay [2] is Mycobacterium tuberculosis. Briefly: Antimycobacterial activity against rifampin and isoniazid-resistant Mycobacterium tuberculosis. Type of assay: functional.

≈ marks a conversion by molar mass, not a printed value.

As a reminder, the MIC is the smallest concentration in the dilution series that meets the test's criterion for growth inhibition. A low value points to a more susceptible organism. With `COC(=O)c1cc2c(OCc3ccccc3)cc(N)cc2[nH]1`, the MIC in assay [1] and in assay [2] was 54 µM (≈ 16 µg/mL) each time.

The values above are taken from ChEMBL document CHEMBL1795340, “A discovery of novel Mycobacterium tuberculosis pantothenate synthetase inhibitors based on the molecular mechanism of actinomycin D inhibition” (Bioorg Med Chem Lett, 2011).
